# According to US6737383B1, “Herbicidal oxadiazolidines” (priority 1999, dated 2004):
# How the values were obtained:
# duck salad = assay: Test B flood test duck salad; assay type: in vivo, Heteranthera limosa
# In short: (§1)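 Flood test on plants grown to the 2-leaf stage; treated plants kept in greenhouse twelve to sixteen days, then visually rated against controls on a 0 (no effect) to 10 (complete control) scale.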
# soybean = assay: Test B pre/postemergence soybean; assay type: in vivo, Glycine max
# In short: (§2)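 Response is a visual 0-to-10 score relative to untreated plants, where 0 means no effect and 10 means complete control, taken twelve to sixteen days after application. Treatments went onto soil at planting and onto foliage of 1- to 4-leaf plants, using a surfactant-containing non-phytotoxic solvent.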
# blackgrass = assay: Test B pre/postemergence blackgrass; assay type: in vivo, Alopecurus myosuroides
# In short: as §2
# rice = assay: Test B flood test rice; assay type: in vivo, Oryza sativa
# In short: as §1
# crabgrass = assay: Test B pre/postemergence crabgrass; assay type: in vivo, Digitaria sanguinalis
# In short: as §2
# wheat = assay: Test B pre/postemergence wheat; assay type: in vivo, Triticum aestivum
# In short: as §2
# wild oat = assay: Test B pre/postemergence wild oat; assay type: in vivo, Avena fatua
# In short: as §2
# sugar beet = assay: Test B pre/postemergence sugar beet; assay type: in vivo, Beta vulgaris
# In short: as §2
# cocklebur = assay: Test B pre/postemergence cocklebur; assay type: in vivo, Xanthium strumarium
# In short: as §2
# morningglory = assay: Test B pre/postemergence morningglory; assay type: in vivo, Ipomoea hederacea
# In short: as §2
# smallflower flatsedge = assay: Test B flood test smallflower flatsedge; assay type: in vivo, Cyperus difformis
# In short: as §1
# purple nutsedge = assay: Test B pre/postemergence purple nutsedge; assay type: in vivo, Cyperus rotundus
# In short: as §2
# velvetleaf = assay: Test B pre/postemergence velvetleaf; assay type: in vivo, Abutilon theophrasti
# In short: as §2
# corn = assay: Test B pre/postemergence corn; assay type: in vivo, Zea mays
# In short: as §2
# pigweed = assay: Test B pre/postemergence pigweed; assay type: in vivo, Amaranthus retroflexus
# In short: as §2
# bedstraw = assay: Test B pre/postemergence bedstraw; assay type: in vivo, Galium aparine
# In short: as §2
# bamyardgrass = assay: Test B flood test barnyardgrass; assay type: in vivo, Echinochloa crus-galli
# In short: as §1
# surinam grass = assay: Test B pre/postemergence surinam grass; assay type: in vivo, Brachiaria decumbens
# In short: as §2
# rape = assay: Test B pre/postemergence rape; assay type: in vivo, Brassica napus
# In short: as §2
# giant foxtail = assay: Test B pre/postemergence giant foxtail; assay type: in vivo, Setaria faberii
# In short: as §2
# [1] = Rate 62 g/ha, flood test species, Pre-emergence, visual evaluation after twelve to sixteen days
# [2] = Rate 125 g/ha, under heading Pre-emergence, flood test species, visual evaluation after twelve to sixteen days
# [3] = Rate 250 g/ha, Pre-emergence (flood test species), scale 0 to 10, 0 is no effect, 10 is complete control
# [4] = Rate 500 g/ha, Pre-emergence section of Table B, 0 to 10 scale (0 no effect, 10 complete control)
# [5] = Postemergence, Rate 62 g/ha, scale 0 to 10, 0 is no effect, 10 is complete control
# [6] = Postemergence, Rate 125 g/ha, scale of 0 to 10 where 0 is no effect and 10 is complete control
# [7] = Postemergence, Rate 250 g/ha, scale of 0 to 10, 0 is no effect, 10 is complete control
# [8] = Postemergence, Rate 500 g/ha, scale of 0 to 10 where 0 is no effect and 10 is complete control
# [9] = Preemergence, Rate 62 g/ha, scale 0 to 10 (0 no effect, 10 complete control)
# [10] = Preemergence, Rate 125 g/ha, scale of 0 to 10 where 0 is no effect and 10 is complete control
# [11] = Preemergence, Rate 500 g/ha, scale of 0 to 10 where 0 is no effect and 10 is complete control
compound,measurement,setting,value
CC(C)N(C(=O)n1oc(=O)n(CC2=NOCCC2)c1=O)c1ccc(F)cc1 [Compound 601],"Plant response rating, Ducksalad (0 to 10 scale, 0 is no effect, 10 is complete control)",duck salad; [1],0
same,"Ducksalad plant response rating (0 to 10 scale, 0 is no effect, 10 is complete control)",duck salad; [2],0
same,Ducksalad plant response rating,duck salad; [3],0
same,Ducksalad plant response rating,duck salad; [4],0
same,"Plant response rating, Soybean",soybean; [5],4
same,"Plant response rating, Soybean",soybean; [6],4
same,Soybean plant response rating,soybean; [7],5
same,"Plant response rating, Soybean",soybean; [8],6
same,Soybean plant response rating,soybean; [9],0
same,Soybean plant response rating,soybean; [10],0
same,"Plant response rating, Soybean",soybean; [11],1
same,Blackgrass plant response rating,blackgrass; [7],7
same,"Plant response rating, Blackgrass",blackgrass; [8],8
same,Blackgrass plant response rating,blackgrass; [10],8
same,Blackgrass plant response rating (0 to 10 scale),"blackgrass; Preemergence, Rate 250 g/ha",8
same,Blackgrass plant response rating,blackgrass; [11],9
same,"Plant response rating, Rice (0 to 10 scale, 0 is no effect, 10 is complete control)",rice; [1],0
same,"Rice plant response rating (0 to 10 scale, 0 is no effect, 10 is complete control)",rice; [2],0
same,Rice plant response rating,rice; [3],0
same,Rice plant response rating,rice; [4],0
same,"Plant response rating, Crabgrass",crabgrass; [5],3
same,"Plant response rating, Crabgrass",crabgrass; [6],4
same,Crabgrass plant response rating,crabgrass; [7],5
same,"Plant response rating, Crabgrass",crabgrass; [8],9
same,Crabgrass plant response rating,crabgrass; [9],6
same,Crabgrass plant response rating,crabgrass; [10],9
same,"Plant response rating, Crabgrass",crabgrass; [11],10
same,"Plant response rating, Wheat",wheat; [5],0
same,"Plant response rating, Wheat",wheat; [6],0
same,Wheat plant response rating,wheat; [7],0
same,"Plant response rating, Wheat",wheat; [8],3
same,Wheat plant response rating,wheat; [9],0
same,Wheat plant response rating,wheat; [10],1
same,"Plant response rating, Wheat",wheat; [11],6
same,"Plant response rating, Wild oats",wild oat; [5],0
same,"Plant response rating, Wild oats",wild oat; [6],0
same,Wild oats plant response rating,wild oat; [7],0
same,"Plant response rating, Wild oats",wild oat; [8],0
same,Wild oats plant response rating,wild oat; [9],3
same,Wild oats plant response rating,wild oat; [10],8
same,"Plant response rating, Wild oats",wild oat; [11],8
same,"Plant response rating, Sugarbeets",sugar beet; [5],0
same,"Plant response rating, Sugarbeets",sugar beet; [6],0
same,Sugarbeets plant response rating,sugar beet; [7],0
same,"Plant response rating, Sugarbeets",sugar beet; [8],0
same,Sugarbeets plant response rating,sugar beet; [9],0
same,Sugarbeets plant response rating,sugar beet; [10],4
same,"Plant response rating, Sugarbeets",sugar beet; [11],5
same,"Plant response rating, Cocklebur",cocklebur; [5],0
same,"Plant response rating, Cocklebur",cocklebur; [6],0
same,Cocklebur plant response rating,cocklebur; [7],0
same,"Plant response rating, Cocklebur",cocklebur; [8],1
same,Cocklebur plant response rating,cocklebur; [9],0
same,Cocklebur plant response rating,cocklebur; [10],0
same,Cocklebur plant response rating (0 to 10 scale),"cocklebur; Preemergence, Rate 250 g/ha",0
same,"Plant response rating, Cocklebur",cocklebur; [11],0
same,"Plant response rating, Morningglory",morningglory; [5],1
same,"Plant response rating, Morningglory",morningglory; [6],1
same,Morningglory plant response rating,morningglory; [7],1
same,"Plant response rating, Morningglory",morningglory; [8],1
same,Morningglory plant response rating,morningglory; [9],0
same,Morningglory plant response rating,morningglory; [10],0
same,"Plant response rating, Morningglory",morningglory; [11],0
same,"Plant response rating, S. Flatsedge (0 to 10 scale, 0 is no effect, 10 is complete control)",smallflower flatsedge; [1],0
same,"S. Flatsedge plant response rating (0 to 10 scale, 0 is no effect, 10 is complete control)",smallflower flatsedge; [2],0
same,S. Flatsedge plant response rating,smallflower flatsedge; [3],0
same,S. Flatsedge plant response rating,smallflower flatsedge; [4],0
same,"Plant response rating, Nutsedge",purple nutsedge; [5],0
same,"Plant response rating, Nutsedge",purple nutsedge; [6],0
same,Nutsedge plant response rating,purple nutsedge; [7],0
same,"Plant response rating, Nutsedge",purple nutsedge; [8],0
same,Nutsedge plant response rating,purple nutsedge; [9],0
same,Nutsedge plant response rating,purple nutsedge; [10],0
same,"Plant response rating, Velvetleaf",velvetleaf; [5],0
same,"Plant response rating, Velvetleaf",velvetleaf; [6],0
same,Velvetleaf plant response rating,velvetleaf; [7],0
same,"Plant response rating, Velvetleaf",velvetleaf; [8],4
same,Velvetleaf plant response rating,velvetleaf; [9],1
same,Velvetleaf plant response rating,velvetleaf; [10],4
same,"Plant response rating, Velvetleaf",velvetleaf; [11],7
same,"Plant response rating, Corn",corn; [5],0
same,"Plant response rating, Corn",corn; [6],0
same,Corn plant response rating,corn; [7],0
same,"Plant response rating, Corn",corn; [8],0
same,Corn plant response rating,corn; [9],0
same,Corn plant response rating,corn; [10],0
same,Corn plant response rating (0 to 10 scale),"corn; Preemergence, Rate 250 g/ha",0
same,"Plant response rating, Corn",corn; [11],3
same,"Plant response rating, Redroot pigweed",pigweed; [5],0
same,"Plant response rating, Redroot pigweed",pigweed; [6],2
same,Redroot pigweed plant response rating,pigweed; [7],2
same,"Plant response rating, Redroot pigweed",pigweed; [8],4
same,Redroot pigweed plant response rating,pigweed; [9],4
same,Redroot pigweed plant response rating,pigweed; [10],10
same,"Plant response rating, Redroot pigweed",pigweed; [11],10
same,Bedstraw plant response rating,bedstraw; [7],3
same,"Plant response rating, Bedstraw",bedstraw; [8],8
same,Bedstraw plant response rating,bedstraw; [9],0
same,Bedstraw plant response rating,bedstraw; [10],0
same,Bedstraw plant response rating (0 to 10 scale),"bedstraw; Preemergence, Rate 250 g/ha",0
same,"Plant response rating, Barnyardgrass (0 to 10 scale, 0 is no effect, 10 is complete control)",bamyardgrass; [1],0
same,"Barnyardgrass plant response rating (0 to 10 scale, 0 is no effect, 10 is complete control)",bamyardgrass; [2],0
same,Barnyardgrass plant response rating,bamyardgrass; [3],0
same,Barnyardgrass plant response rating,bamyardgrass; [4],0
same,"Plant response rating, B. signalgrass",surinam grass; [5],0
same,"Plant response rating, B. signalgrass",surinam grass; [6],0
same,B. signalgrass plant response rating,surinam grass; [7],4
same,"Plant response rating, B. signalgrass",surinam grass; [8],7
same,B. signalgrass plant response rating,surinam grass; [9],3
same,B. signalgrass plant response rating,surinam grass; [10],7
same,"B. signalgrass plant response rating (0 to 10 scale, 0 is no effect, 10 is complete control)","surinam grass; Preemergence, Rate 250 g/ha",8
same,B. signalgrass plant response rating,surinam grass; [11],8
same,"Plant response rating, Rape",rape; [5],0
same,"Plant response rating, Rape",rape; [6],0
same,Rape plant response rating,rape; [7],0
same,"Plant response rating, Rape",rape; [8],0
same,Rape plant response rating,rape; [9],0
same,Rape plant response rating,rape; [10],0
same,"Plant response rating, Rape",rape; [11],5
same,"Plant response rating, Giant foxtail",giant foxtail; [5],7
same,"Plant response rating, Giant foxtail",giant foxtail; [6],7
same,Giant foxtail plant response rating,giant foxtail; [7],7
same,"Plant response rating, Giant foxtail",giant foxtail; [8],9
same,Giant foxtail plant response rating,giant foxtail; [9],10
same,Giant foxtail plant response rating,giant foxtail; [10],10
same,"Plant response rating, Giant foxtail",giant foxtail; [11],10
